Data published in US7678557B2, “Methods for the accumulation and retention of immune-enhancing, bacterial-derived ribonucleotides (ORN) in bacteria” (priority 1993, dated 2010).

Test system: L. monocytogenes
Assay: Disk diffusion assay of antibiotic susceptibility before and after 6 serial washes in PBS (Example 9)
Assay type: cell-based
Conditions: disk content per antimicrobial, average of 6 experiments (SD)
Text: The disk diffusion assay was used to determine the susceptibility of vegetative forms of L. monocytogenes, before and after 6 serial 20-min washes in PBS. (See Bauer, A, Kirby, W, Sherris, J, Turck, M, 1966 Antibiotic Susceptibility Testing by a Standardize Single Disk Method, Amer J Clin Path 36:41-44).
Data are averages of 6 experiments. SD is in parentheses.

[1] = After 6 Washes (20 min each in PBS), L. monocytogenes
[2] = Before Washing, vegetative L. monocytogenes

| Compound | Diameter of Zone of Inhibition [1] | Diameter of Zone of Inhibition [2] |
| --- | --- | --- |
| CC1(C)S[C@@H]2[C@H](NC(=O)[C@H](N)c3ccccc3)C(=O)N2[C@H]1C(=O)O [Ampicillin] | 30 mm (3.6) | 32 mm (3.8) |
| NC[C@H]1O[C@H](O[C@H]2[C@H](O)[C@@H](O[C@H]3O[C@H](CO)[C@@H](O)[C@H](N)[C@H]3O)[C@H](N)C[C@@H]2N)[C@H](O)[C@@H](O)[C@@H]1O [Kanamycin] | – | 11 (2.66) mm |
| CN(C)[C@@H]1C(O)=C(C(N)=O)C(=O)[C@@]2(O)C(O)=C3C(=O)c4c(O)cccc4[C@@](C)(O)[C@H]3C[C@@H]12 [Tetracycline] | 45 (6.3) mm | 40 (5.0) mm |
| CN[C@H](CC(C)C)C(=O)N[C@H]1C(=O)N[C@@H](CC(N)=O)C(=O)N[C@H]2C(=O)N[C@H]3C(=O)N[C@H](C(=O)N[C@H](C(=O)O)c4cc(O)cc(O)c4-c4cc3ccc4O)[C@H](O)c3ccc(c(Cl)c3)Oc3cc2cc(c3O[C@@H]2O[C@H](CO)[C@@H](O)[C@H](O)[C@H]2O[C@H]2C[C@](C)(N)[C@H](O)[C@H](C)O2)Oc2ccc(cc2Cl)[C@H]1O [Vancomycin] | 30 (4.2) mm | 25 (3.7) mm |
| Polymixin B | – | 0 mm |
